Test results from PMC4722047, “Purification and characterization of the enzymes involved in nicotinamide adenine dinucleotide degradation by Penicillium brevicompactum NRC 829” (3 Biotech, 2016).

Test system: T1, NAD aminohydrolase (NAD deaminase)
T1 construct: native enzyme purified from mycelial extract (acetone, DEAE-Sephadex A-25, Sephadex G-100); 91 kDa by SDS-PAGE
Test: discontinuous ammonia release (Nessler's reagent)
Format: biochemical, Penicillium brevicompactum
Details: pH 6.0, 50 mM Tris-acetate
From the text: discontinuous ammonia release (Nessler's reagent) on NAD aminohydrolase (NAD deaminase)

[1] = 40 °C (conditions given for NAD)

Structure (SMILES)	Km [1] [µM]	Km (40 °C, 30 min, 1.5-20 µM NAD+) [µM]
Nc1ncnc2c1ncn2[C@@H]1O[C@H](COP(=O)(O)OP(=O)(O)O)[C@@H](O)[C@H]1O [ADP]	6.25	–
Nc1ncnc2c1ncn2[C@@H]1O[C@H](COP(=O)(O)O)[C@@H](O)[C@H]1O [AMP]	8.33	–
Nc1ncnc2c1ncn2[C@@H]1O[C@H](CO)[C@@H](O)[C@H]1O [Adenosine]	4.5	–
NC(=O)c1ccc[n+]([C@@H]2O[C@H](COP(=O)(O)OP(=O)(O)OC[C@H]3O[C@@H](n4cnc5c(N)ncnc54)[C@H](O)[C@@H]3O)[C@@H](O)[C@H]2O)c1 [NAD]	–	5.2
